Test results: patent US9695205B2, “Amide compounds for treatment of complement mediated disorders” (Achillion Pharmaceuticals, Inc., priority 2014, dated 2017)

Molecular target: Human factor D (Homo sapiens (Human), UniProt P00746)
Assay: Human Factor D Assay
Format: biochemical
Details: Human factor D 80 nM, substrate Z-L-Lys-SBzl and DTNB 100 μM each, pH 7.5
Procedure: Example 14. Human Factor D Assay
Human factor D (purified from human serum, Complement Technology, Inc.) at 80 nM final concentration is incubated with test compound at various concentrations for 5 minutes at room temperature in 50 mM Tris, 1M NaCl, pH 7.5. A synthetic substrate Z-L-Lys-SBzl and DTNB (Ellman's reagent) are added to final concentrations of 100 μM each. The increase in color is recorded at OD405 nm in a microplate in kinetic mode over 30 minutes with 30 second time points in a spectrofluorimeter. IC50 values are calculated by non-linear regression from the percentage of inhibition of complement factor D activity as a function of test compound concentration.

Chain of Human factor D (P00746 26-253): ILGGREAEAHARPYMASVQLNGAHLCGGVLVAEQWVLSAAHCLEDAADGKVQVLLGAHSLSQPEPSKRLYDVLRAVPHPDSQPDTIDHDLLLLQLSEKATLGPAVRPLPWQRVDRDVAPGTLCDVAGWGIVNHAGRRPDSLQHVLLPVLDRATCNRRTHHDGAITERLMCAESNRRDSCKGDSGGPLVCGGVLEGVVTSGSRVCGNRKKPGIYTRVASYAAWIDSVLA

| Compound | IC50 |
| --- | --- |
| CC(=O)c1cn(CC(=O)N2C[C@H](F)C[C@H]2C(=O)NCc2cccc(Cl)c2F)c2ccc(NC(=O)NC3CC3)cc12 [Compound 1, (2S,4R)-1-(2-(3-acetyl-5-(3-cyclopropylureido)-1H-indol-1-yl)acetyl)-N-(3-chloro-2-fluorobenzyl)-4-fluoropyrrolidine-2-carboxamide] | < 1000 nM |
| CC(=O)c1cn(CC(=O)N2C[C@H](F)C[C@H]2C(=O)NCc2cccc(Cl)c2F)c2ccc(NC(=O)NCc3nn[nH]n3)cc12 [Compound 2, (2S,4R)-1-(2-(5-(3-((2H-tetrazol-5-yl)methyl)ureido)-3-acetyl-1H-indo-1-yl)acetyl)-N-(3-chloro-2-fluorobenzyl)-4-fluoropyrrolidine-2-carboxamide] | < 1000 nM |
| CC(=O)c1cn(CC(=O)N2[C@@H]3C[C@@H]3C[C@H]2C(=O)NCc2cccc(Cl)c2F)c2ccc(NC(=O)NC3CC3)cc12 [Compound 3, (1R,3S,5R)-2-(2-(3-acetyl-5-(3-cyclopropylureido)-1H-indol-1-yl)acetyl)-N-(3-chloro-2-fluorobenzyl)-2-azabicyclo[3.1.0]hexane-3-carboxamide] | < 1000 nM |
| CC(=O)c1cn(CC(=O)N2C[C@H](F)C[C@H]2C(=O)NCc2cccc(Cl)c2F)c2ccc(NC(=O)NC3(C)CC3)cc12 [Compound 4, (2S,4R)-1-(2-(3-acetyl-5-(3-(1-methylcyclopropyl)ureido)-1H-indol-1-yl)acetyl)-N-(3-chloro-2-fluorobenzyl)-4-fluoropyrrolidine-2-carboxamide] | < 1000 nM |
| CC(=O)c1cn(CC(=O)N2[C@@H]3C[C@@H]3C[C@H]2C(=O)N[C@H](C)c2cccc(Cl)c2F)c2ccc(NC(=O)NC3CC3)cc12 [Compound 5, (1R,3S,5R)-2-(2-(3-acetyl-5-(3-cyclopropylureido)-1H-indol-1-yl)acetyl)-N-((R)-1-(3-chloro-2-fluorophenyl)ethyl)-2-azabicyclo[3.1.0]hexane-3-carboxamide] | < 1000 nM |
| CC(=O)c1cn(CC(=O)N2C[C@H](F)C[C@H]2C(=O)NCc2cccc(Cl)c2F)c2ccc(NC(=O)NC(C)C)cc12 [Compound 6, (2S,4R)-1-(2-(3-acetyl-5-(3-isopropylureido)-1H-indol-1-yl)acetyl)-N-(3-chloro-2-fluorobenzyl)-4-fluoropyrrolidine-2-carboxamide] | < 1000 nM |
| CC(=O)c1cn(CC(=O)N2C[C@H](F)C[C@H]2C(=O)NCc2cccc(Cl)c2F)c2ccc(NC(=O)NCc3ccon3)cc12 [Compound 7, (2S,4R)-1-(2-(3-acetyl-5-(3-(isoxazol-3-ylmethyl)ureido)-1H-indol-1-yl)acetyl)-N-(3-chloro-2-fluorobenzyl)-4-fluoropyrrolidine-2-carboxamide] | < 1000 nM |
| CC(=O)c1cn(CC(=O)N2C[C@H](F)C[C@H]2C(=O)NCc2cccc(Cl)c2F)c2ccc(NC(=O)NCc3ncccn3)cc12 [Compound 8, (2S,4R)-1-(2-(3-acetyl-5-(3-(pyrimidin-2-ylmethyl)ureido)-1H-indol-1-yl)acetyl)-N-(3-chloro-2-fluorobenzyl)-4-fluoropyrrolidine-2-carboxamide] | < 1000 nM |
| CC(=O)c1cn(CC(=O)N2C[C@H](F)C[C@H]2C(=O)NCc2cccc(Cl)c2F)c2ccc(NC(=O)N3CCCC3)cc12 [Compound 9, N-(3-acetyl-1-(2-((2S,4R)-2-(3-chloro-2-fluorobenzylcarbamoyl)-4-fluoropyrrolidin-1-yl)-2-oxoethyl)-1H-indol-5-yl)pyrrolidine-1-carboxamide] | < 1000 nM |
| CC(=O)c1cn(CC(=O)N2C[C@H](F)C[C@H]2C(=O)Nc2cccc(OC(F)(F)F)c2F)c2ccc(NC(=O)NC3CC3)cc12 [Compound 10, (2S,4R)-1-(2-(3-acetyl-5-(3-cyclopropylureido)-1H-indol-1-yl)acetyl)-4-fluoro-N-(2-fluoro-3-(trifluoromethoxy)phenyl) pyrrolidine-2-carboxamide] | < 1000 nM |
| CC(=O)c1cn(CC(=O)N2[C@@H]3C[C@@H]3C[C@H]2C(=O)Nc2cccc(OC(F)(F)F)c2F)c2ccc(NC(=O)NC3CC3)cc12 [Compound 11, (1R,3S,5R)-2-(2-(3-acetyl-5-(3-cyclopropylureido)-1H-indol-1-yl)acetyl)-N-(2-fluoro-3-(trifluoromethoxy)phenyl)-2-azabicyclo[3.1.0]hexane-3-carboxamide] | < 1000 nM |
| CC(=O)c1cn(CC(=O)N2C[C@H](F)C[C@H]2C(=O)NCc2cccc(Cl)c2F)c2ccc(NC(=O)N3CCC(F)(F)C3)cc12 [Compound 13] | < 1000 nM |
| CC(=O)c1cn(CC(=O)N2C[C@H](F)C[C@H]2C(=O)NCc2cccc(Cl)c2F)c2ccc(NC(=O)OCC3CC3)cc12 [Compound 15, cyclopropylmethyl 3-acetyl-1-(2-((2S,4R)-2-(3-chloro-2-fluorobenzylcarbamoyl)-4-fluoropyrrolidin-1-yl)-2-oxoethyl)-1H-indol-5-ylcarbamate] | < 1000 nM |
| CC(=O)c1cn(CC(=O)N2C[C@H](F)C[C@H]2C(=O)NCc2cccc(Cl)c2F)c2ccc(NC(=O)N3CCCC(F)(F)C3)cc12 [Compound 16, N-(3-acetyl-1-(2-((2S,4R)-2-(3-chloro-2-fluorobenzylcarbamoyl)-4-fluoropyrrolidin-1-yl)-2-oxoethyl)-1H-indol-5-yl)-3,3-difluoropiperidine-1-carboxamide] | < 1000 nM |
| CC(=O)c1cn(CC(=O)N2C[C@H](F)C[C@H]2C(=O)Nc2cccc(OC(F)(F)F)c2F)c2ccc(NC(=O)N3CCCC(F)(F)C3)cc12 [Compound 17, N-(3-acetyl-1-(2-((2S,4R)-4-fluoro-2-(2-fluoro-3-(trifluoromethoxy)phenylcarbamoyl)pyrrolidin-1-yl)-2-oxoethyl)-1H-indol-5-yl)-3,3-difluoropiperidine-1-carboxamide] | < 1000 nM |
| CC(=O)c1cn(CC(=O)N2C[C@H](F)C[C@H]2C(=O)Nc2cccc(-c3ccccc3Cl)c2F)c2ccc(NC(=O)N3CCCC(F)(F)C3)cc12 [Compound 18, N-(3-acetyl-1-(2-((2S,4R)-2-(2′-chloro-2-fluorobiphenyl-3-ylcarbamoyl)-4-fluoropyrrolidin-1-yl)-2-oxoethyl)-1H-indol-5-yl)-3,3-difluoropiperidine-1-carboxamide] | < 1000 nM |
| CC(=O)c1cn(CC(=O)N2C[C@H](F)C[C@H]2C(=O)NCc2cccc(Cl)c2F)c2ccc(NC(=O)Nc3ccon3)cc12 [Compound 19, (2S,4R)-1-(2-(3-acetyl-5-(3-isoxazol-3-ylureido)-1H-indol-1-yl)acetyl)-N-(3-chloro-2-fluorobenzyl)-4-fluoropyrrolidine-2-carboxamide] | < 1000 nM |
| CC(=O)c1cn(CC(=O)N2C[C@H](F)C[C@H]2C(=O)Nc2cccc(C(F)(F)F)n2)c2ccc(NC(=O)N3CCCC(F)(F)C3)cc12 [Compound 20, N-(3-acetyl-1-(2-((2S,4R)-4-fluoro-2-(6-(trifluoromethyl)pyridin-2-ylcarbamoyl)pyrrolidin-1-yl)-2-oxoethyl)-1H-indol-5-yl)-3,3-difluoropiperidine-1-carboxamide] | < 1000 nM |
| CC(=O)c1cn(CC(=O)N2C[C@H](F)C[C@H]2C(=O)NCc2cccc(Cl)c2F)c2ccc(NC(=O)NCC(F)(F)F)cc12 [Compound 21, (2S,4R)-1-(2-(3-acetyl-5-(3-(2,2,2-trifluoroethyl)ureido)-1H-indol-1-yl)acetyl)-N-(3-chloro-2-fluorobenzyl)-4-fluoropyrrolidine-2-carboxamide] | < 1000 nM |
| CC(=O)c1cn(CC(=O)N2C[C@H](F)C[C@H]2C(=O)NCc2cccc(Cl)c2F)c2ccc(NC(=O)N3Cc4cncnc4C3)cc12 [Compound 22, N-(3-acetyl-1-(2-((2S,4R)-2-(3-chloro-2-fluorobenzylcarbamoyl)-4-fluoropyrrolidin-1-yl)-2-oxoethyl)-1H-indol-5-yl)-5H-pyrrolo[3,4-d]pyrimidine-6(7H)-carboxamide] | < 1000 nM |
| CC(=O)c1cn(CC(=O)N2C[C@H](F)C[C@H]2C(=O)NCc2cccc(Cl)c2F)c2ccc(NC(=O)Nc3cncnc3)cc12 [Compound 23, (2S,4R)-1-(2-(3-acetyl-5-(3-pyrimidin-5-ylureido)-1H-indol-1-yl)acetyl)-N-(3-chloro-2-fluorobenzyl)-4-fluoropyrrolidine-2-carboxamide] | < 1000 nM |
| NC(=O)c1nn(CC(=O)N2C[C@H](F)C[C@H]2C(=O)Nc2cccc(-c3ccccc3Cl)c2F)c2ccc(NC(=O)N3CCCC(F)(F)C3)cc12 [Compound 24, 1-(2-((2S,4R)-2-(2′-chloro-2-fluorobiphenyl-3-ylcarbamoyl)-4-fluoropyrrolidin-1-yl)-2-oxoethyl)-5-(3,3-difluoropiperidine-1-carboxamido)-1H-indazole-3-carboxamide] | < 1000 nM |
| NC(=O)c1nn(CC(=O)N2C[C@H](F)C[C@H]2C(=O)Nc2cccc(OC(F)(F)F)c2F)c2ccc(NC(=O)Nc3ccon3)cc12 [Compound 25, 1-(2-((2S,4R)-4-fluoro-2-(2-fluoro-3-(trifluoromethoxy)phenylcarbamoyl)pyrrolidin-1-yl)-2-oxoethyl)-5-(3-isoxazol-3-ylureido)-1H-indazole-3-carboxamide] | < 1000 nM |
| NC(=O)c1nn(CC(=O)N2C[C@H](F)C[C@H]2C(=O)Nc2cccc(OC(F)(F)F)c2F)c2ccc(NC(=O)N3CCCC(F)(F)C3)cc12 [Compound 26, 5-(3,3-difluoropiperidine-1-carboxamido)-1-(2-((2S,4R)-4-fluoro-2-(2-fluoro-3-(trifluoromethoxy)phenylcarbamoyl)pyrrolidin-1-yl)-2-oxoethyl)-1H-indazole-3-carboxaide] | < 1000 nM |
| NC(=O)c1nn(CC(=O)N2[C@@H]3C[C@@H]3C[C@H]2C(=O)Nc2cccc(OC(F)(F)F)c2F)c2ccc(NC(=O)N3CCCC(F)(F)C3)cc12 [Compound 27, 5-(3,3-difluoropiperidine-1-carboxamido)-1-(2-((1R,3S,5R)-3-(2-fluoro-3-(trifluoromethoxy)phenylcarbamoyl)-2-azabicyclo[3.1.0]hexan-2-yl)-2-oxoethyl)-1H-indazole-3-carboxamide] | < 1000 nM |
